US5814634A, “Alkylenediamine derivative anti-ulcer drug and antibacterial drug” (Shiseido Co. Ltd., priority 1996, dated 1998)

Assays:
Male Slc:ICR mice = tested on: Male Slc:ICR mice; set-up: species or system mouse (male Slc:ICR); settings: mouse, in vivo
Protocol: AT: Single Dose Toxicity Pretest
Male Slc:ICR mice (5-week-old) were used. Each group has 3 to 5 mice and each mouse was fasted, but allowed free access to water, for 4 to 5 hours from 9 a.m. in the test day. Then, 2,000 mg/10 ml/kg of the sample compound dissolved or suspended in an aqueous solution of 0.5% sodium carboxymethyl cellulose was orally administered thereto. To a control, only the vehicle was administered. […] The body weight was measured before and after the fasting as well as at the same time everyday. The dead animals were immediately subjected to autopsy and their organs were observed microscopically. Also, the living animals were sacrificed with ether or carbon dioxide one week after the administration and then their organs were observed microscopically.
The toxicity at the single dose of 2,000 mg/kg of the sample compound was expressed as being classified into 5 levels.
5: Mortality rate is 0%; no toxicity is found at all both in behavior and organs.
4: Mortality rate is 0%; while no toxicity is found in organs, slight toxicity is observed in behavior and body weight increase.
3: While there is a dead animal (though not all the animals are dead), no toxicity is found in organs.
2: Regardless of whether there is a dead animal or not, toxicity is found in organs.
1: All the animals are dead.

gastric mucosa = experiment: PD: Gastric Mucosal Integrity Test (gastric mucosal potential difference); type: in vivo, rat (male Crj:SD); set-up: key: 5: Same as the control with no recognizable damage at all.; 4: Though a slight PD-decreasing tendency suggesting a slight possibility of mucosal damage is found, there is no problem.; 3: Though a weak decrease in PD and a possibility of a weak mucosal damage is recognized, there is no substantial problem.; 2: Medium degree of decrease in PD is found and a mucosal damage is recognized.; 1: Heavy degree of decrease in PD is found and a remarkable mucosal damage is recognized; settings: 100 mg/kg into chamber, rats, 60 minutes
Protocol: PD: Gastric Mucosal Integrity Test
In this case, since the sample compound has a necrotizing effect, it is inappropriate as an anti-ulcer medicament.
Therefore, the gastric mucosal potential difference (PD), which reflects the integrity of the gastric mucosa, is measured so as to confirm that the sample compound has no damaging effect on gastric mucosa, which is toxicity at gastric mucosal level.
Male Crj:SD rats (7 to 8-week-old) were fasted overnight, but allowed free access to water, and then, under urethane anesthesia (1.25 g/kg, i.p.), fixed to a cork board on its back. The abdomen of each rat was incised, and a small incision was made in the forestomach. Then, the inside of the stomach was washed with physiological saline heated at 37° C. From the forestomach, along the greater curvature thereof, the stomach was incised without damaging blood vessels. After the height of the cork board was adjusted on a jack, the stomach was mounted on ex vivo chamber. The area of the gastric mucosa exposed to the inside of this chamber was 2.5 cm^2. The inside of the chamber was perfused with physiological saline warmed at 37° C. by micro tube pump. By using an agar bridge containing 3M KCl, the potential difference between the chamber and the abdominal cavity was measured by a PD meter. Here, the rectal temperature was measured to control the body temperature during the experiment. After the PD was sufficiently stabilized, the perfusate was stopped and then 100 mg/10 ml/kg of the sample compound dissolved or suspended in an aqueous solution of 0.5% sodium carboxymethyl cellulose or 0.05% Tween 80 was administered into the chamber, while PD was recorded for 60 minutes. To a control, the vehicle was administered.
The change in PD during 60 minutes after the administration of 100 mg/kg of the sample compound was collectively studied and, with reference to the positive control, classified into 5 levels as follows:
5: Same as the control with no recognizable damage at all.
3: Though a weak decrease in PD and a possibility of a weak mucosal damage is recognized, there is no substantial problem.
2: Medium degree of decrease in PD is found and a mucosal damage is recognized.
1: Heavy degree of decrease in PD is found and a remarkable mucosal damage is recognized.

in vitro = settings: rabbit, gastric mucosal cells
stress ulcer = experiment: WIS: Restraint and Water Immersion Stress-Induced Ulcer Inhibition Test; type: in vivo, rat (male Crj:SD or Slc:SD); settings: 100 mg/kg oral, rats, water immersion stress 7 hours
Protocol: WIS: Restraint and Water Immersion Stress-Induced Ulcer Inhibition Test
The degree of inhibition of the stress ulcer formation is tested.
Male Crj:SD or Slc:SD rats (6 to 7-week-old) were fasted overnight, but allowed free access to water. Each group has 5 to 8 of these rats. The sample compound was dissolved or suspended in an aqueous solution of 0.3% sodium carboxymethylcellulose or 0.05% Tween 80 and then was orally administered (100 mg/10 ml/kg). To a control group, the vehicle was administered. 10 minutes later, the rats were placed in a stress cage and immersed to the level of xipfoid process in a water bath (21° C.) for 7 hours. At the end of the stress, the rats were sacrificed by inhalation of ether or carbon dioxide. Then, the stomach of each was removed, inflated by injecting 10 ml of 5% formalin neutral buffer solution, and immersed in 1% formalin neutral buffer solution for 30 minutes or more to be fixed. The stomach was incised along the greater curvature and then the length of each erosion in the glandular portion was determined under dissecting microscope. The sum of the length of erosions per stomach was defined as ulcer index (UI).
(§1) The effect obtained when 100 mg/kg of the sample compound had been administered was expressed as ulcer formation inhibitory rate (%) as follows: [formula] VOL, TAO: Acid Secretion Inhibition Test In Vivo i) Meaning

acid secretion in vivo = experiment: VOL, TAO: Acid Secretion Inhibition Test In Vivo; set-up: species or system rat (male Crj:Donryu); settings: 100 mg/kg oral, pylorus-ligated rats, histamine 30 mg/kg s.c.
Protocol: as §1
Inhibitory effect on acid secretion in vivo is confirmed.
Male Crj:Donryu rats (7-week-old) were fasted overnight but allowed free access to water. In each group, 8 to 10 of these rats were used under urethane anesthesia (1.25 g/kg). The sample compound dissolved or suspended in an aqueous solution of 0.5% sodium carboxymethylcellulose or 0.05% Tween 80 was orally administered (100 mg/10 ml/kg). 30 minutes later, the abdomen of each was incised and the pylorus was ligated. 30 minutes after the ligation, 30 mg/kg of histamine dissolved in physiological saline was subcutaneously administered and, 3 hours thereafter, the rat was sacrificed with carbon dioxide. Immediately thereafter, each stomach was removed and the gastric contents were collected and each volume was determined. The total acid output was determined by titration of the gastric juice with 0.1N NaOH.
(§2) With respect to the gastric juice volume (VOL) and the total acid output (TAO), the effects obtained when 100 mg/kg of the sample compound had been administered were expressed as their respective inhibitory rates (%) as follows: [formula] CAP: Acid Secretion Inhibition Test In Vitro i) Meaning

[1] = tested on: isolated gastric fundic gland; experiment: CAP: Acid Secretion Inhibition Test In Vitro ([14C]-aminopyrine uptake); type: cell-based, rabbit (male Japanese White); settings: Oryctolagus cuniculus, 40 min; 10^-5 M compound, 10^-5 M histamine, rabbit isolated gastric fundic gland, 37° C., 40 minutes; read-out: CAP: acid secretion inhibitory rate
Protocol: as §2
The acid secretion inhibitory activity in a cell level is studied. It can also be used for studying the mechanism of the effect.
ii-a) Preparation of isolated gastric fundus gland suspension
First, an isolated gastric fundic gland sample was prepared. […] Immediately thereafter, the stomach was removed and, after its pyloric and cardiac antrum were severed, incised along its greater curvature into two sheets. The gastric contents adhering to the mucosal surface was washed out with ice-cooled PBS (-) and then carefully washed therein. The gastric wall was spread on a cork board with its mucosal surface facing up and the feed and mucus thereon were completely removed with sterile gauze. The mucosa was separated therefrom by a spatula and then collected in ice-cooled PBS (-). After being washed twice with PBS (-), the mucosa was minced into 2-3 mm^3 pieces by scissors. These pieces were further washed twice with a nutrient solution. The nutrient solution comprises 132.4 mM of NaCl, 5.4 mM of KCl, 5 mM of Na2 HPO4.12H2 O, 1 mM of NaH2 PO4.2H2 O, 1.2 mM of MgSO4, 1 mM of CaCl2, 25 mM of HEPES, 2 mg/ml of glucose, and 1 mg/ml of BSA. Into 70 ml of the nutrient solution containing 1 mg/ml of collagenase, minced mucosal pieces were dispersed and intensely stirred in a conical flask with a stirrer at 37° C. for 40 to 60 minutes. During this period, 100% O2 was sprayed on the nutrient solution surface and the pH was appropriately measured such that it was immediately adjusted to pH 7.4, when the value was therebelow, with a base. The nutrient solution was added to the reaction solution so as to attain the total amount of about 200 ml. After being filtered through a mesh, the suspension was divisionally introduced into 50 ml centrifuge tubes and left for 15 minutes such that gastric fundic gland was deposited. The supernatant was repeatedly removed by an aspirator, dispersed in the nutrient solution, and then left such that the gastric fundic gland was washed three times. At this time, without using a pipette, the suspension was alternately introduced into two centrifuge tubes so as to effect dispersion. The number of cells was counted under microscope and adjusted to 1.6×10^6 cells/ml.
ii-b) [^14 C]-aminopyrine uptake test
Then, [^14 C]-aminopyrine uptake test was performed. After an Eppendorf tube was weighed, 10 μl (final concentration: 10^-5 M) of histamine dissolved in the above-mentioned nutrient solution, 10 μl (final concentration: 10^-5 M) of the test compound dissolved in DMSO, and 10 μl (final concentration: 0.05 μCi/ml) of [^14 C]-aminopyrine diluted with the nutrient solution were introduced therein and then 970 μl of the isolated gastric fundic gland suspension prepared above was added thereto. Subsequently, this mixture was shaken at 37° C. for 40 minutes at 125 cycles/minute. After being centrifuged for 30 minutes, 200 μl of its supernatant was collected into a mini-vial, while the rest was removed by an aspirator. The gland pellet was completely dried as the tube with its lid being opened was kept for one night in a drying oven at 80° C. and then the lid was closed and the weight was determined at room temperature. Then 100 μl of 1N KOH was added thereto and the tube with its lid being closed was treated at 60° C. for 1 to 2 hours so as to dissolve the pellet. Then, the contents thereof were transferred to a mini-vial. Into the mini-vial containing the supernatant or gland pellet, 4 ml of Atomlite™ was added and then the radioactivity was measured by a liquid scintillation counter. […]

Helicobacter pyroli = experiment: AHP: Antibacterial Activity Test Against Helicobacter pyroli (agar dilution MIC); type: cell-based, Helicobacter pyroli NCTC 11637; settings: for MIC: Helicobacter, NCTC11637, 168 h, HP NCTC 11637, brucella agar with 5% horse blood, 7 days, read-out: AHP: minimum inhibitory concentration (MIC)
Protocol: Antibacterial Activity Test Against Helicobacter pyroli i) Meaning The minimum inhibitory concentration (MIC) against Helicobacter pyroli (microaerophilic gram-negative bacterium which is supposed to deeply involve in pathogenesis, relapse, and recrudescence of ulcer, referred to as "HP" in the following) is measured so as to find out compounds which have antimicrobial activity against Helicobacter pyroli. ii) Method MICs were determined by the agar dilution method. The stock culture (-80° C.) of HP NCTC 11637 was thawed and cultured on tripticase soy agar supplemented with 5% sheep blood at 37° C. in an atmosphere of 5% O2, 10% CO2, and 85% N2. Grown colonies were transferred to the same plate and precultured for 3 days under the same condition. […] 10 μl of the bacterial suspension for inoculation (about 10^3 cfu) was inoculated on this plate and cultured for 7 days under the same condition as that of preculture.

SMILES | AT: toxicity at single dose, 5 levels (Male Slc:ICR mice) | PD: change in gastric mucosal potential difference, 5 levels (gastric mucosa) | cytotoxicity at 4 h, 100 µM (in vitro) | WIS: ulcer formation inhibitory rate (stress ulcer) | TAO: total acid output inhibitory rate (acid secretion in vivo) | VOL: gastric juice volume inhibitory rate (acid secretion in vivo) | inhibition at 10 µM [1] | MIC (Helicobacter pyroli) | antibacterial activity against Helicobacter pyroli (Helicobacter pyroli; result in words)
COc1cc(C(=O)NCCN2CCOCC2)cc(OC)c1OC/C=C(/C)CCC=C(C)C [Example 43] | 4 | 5 | 10% | 41% |  |  |  |  | 
CC(C)=CCC/C(C)=C/COc1ccc(C(=O)NCCN2CCN(CC(C)C)CC2)cc1 [Example 46] |  |  | 68% | 78% | 34% | 33% | 100% |  | 
CC(C)=CCC/C(C)=C/CC/C(C)=C/COc1ccc(C(=O)NCCN2CCCCC2)cc1 [Example 10] | 4 | 5 |  | 47% |  |  | 98% |  | 
CC(C)Cc1cc(C(=O)NCCN2CCN(CC(C)C)CC2)ccc1OCc1ccc(F)cc1 [Example 62] | 3 |  |  | 77% |  |  | 102% | < 3.13 µg/mL | 
CC(C)=CCC/C(C)=C/COc1ccc(C(=O)NCCN2CCCCC2)cc1OC/C=C(\C)CCC=C(C)C [Example 11] | 4 | 5 | 23% | 91% |  |  |  |  | 
COc1cc(C(=O)NCCN2CCCCC2)cc(OC)c1OCC=C(C)C [Example 27] |  | 5 | -11% | 82% |  |  |  |  | 
CC(C)=CCC/C(C)=C/COc1ccc(C(=O)NCCN2CCN(c3nc4ccccc4s3)CC2)cc1 [Example 59] |  |  | 7% | 47% |  |  | 93% | < 3.13 µg/mL | having an antibacterial activity against Helicobacter pyroli
CC(C)=CCC/C(C)=C/COc1ccc(C(=O)NCCN2CCCCC2)cc1 [Example 3] | 4 |  |  | 79% | 85% | 68% | 100% |  | 
